Assays:
DNA = experiment: Binding affinity to calf thymus DNA assessed as helix melting temperature at 20 uM after 18 hrs; format: nucleic-acid assay; conditions: Bos taurus
ZR-75-1 = experiment: Growth inhibition of human Zr-75-1 cells by SRB method; format: functional
MCF7 = experiment: Growth inhibition of human MCF7 cells by SRB method; format: functional
KB = experiment: Growth inhibition of human KB cells by SRB method; format: functional
[1] = Growth inhibition of human Gurav cells by SRB method; format: functional
[2] = Growth inhibition of human DWD cells by SRB method; format: functional
A2780 = experiment: Growth inhibition of human A2780 cells by SRB method; format: functional
COLO 205 = experiment: Growth inhibition of human Colo205 cells by SRB method; format: functional
A549 = experiment: Growth inhibition of human A549 cells by SRB method; format: functional
PC-3 = experiment: Growth inhibition of human PC3 cells by SRB method; format: functional
SiHa = experiment: Growth inhibition of human SiHa cells by SRB method; format: functional

| Compound | ΔTm (DNA) | GI50 (ZR-75-1) | GI50 (MCF7) | GI50 (KB) | GI50 [1] | GI50 [2] | GI50 (A2780) | GI50 (COLO 205) | GI50 (A549) | GI50 (PC-3) | GI50 (SiHa) |
| --- | --- | --- | --- | --- | --- | --- | --- | --- | --- | --- | --- |
| COC(=O)c1nnn(CCCCOc2cc3c(cc2OC)C(=O)N2CCC[C@H]2C=N3)c1C(=O)OC | 0 °C | 2120 nM | 30500 nM | 2360 nM | 2390 nM | 2240 nM | 130 nM | 210 nM | 28.7 µM | 25400 nM | 2040 nM |
| COC(=O)c1nnn([C@H]2C[C@H]3C=Nc4cc(OCc5ccccc5)c(OC)cc4C(=O)N3C2)c1C(=O)OC | 2.2 °C | – | 27600 nM | – | – | 29700 nM | 25800 nM | 27900 nM | – | – | 2040 nM |
| COC(=O)c1nnn([C@H]2C[C@H]3C=Nc4ccccc4C(=O)N3C2)c1C(=O)OC | 2.3 °C | – | – | – | – | – | – | – | – | – | – |
| COC(=O)c1nnn(CCCCOc2cc3c(cc2OC)C(=O)N2C[C@@H](n4nnc(C(=O)OC)c4C(=O)OC)C[C@H]2C=N3)c1C(=O)OC | 0 °C | – | – | – | – | – | – | – | – | – | – |
| COC(=O)c1nnn(CCCOc2cc3c(cc2OC)C(=O)N2CCC[C@H]2C=N3)c1C(=O)OC | 3.1 °C | 2530 nM | – | 26600 nM | 25100 nM | 25500 nM | 2480 nM | 2090 nM | 24.7 µM | 28700 nM | 2120 nM |
| COC(=O)c1nnn(CCCCCOc2cc3c(cc2OC)C(=O)N2C[C@@H](n4nnc(C(=O)OC)c4C(=O)OC)C[C@H]2C=N3)c1C(=O)OC | 5.9 °C | 5510 nM | 2050 nM | 1920 nM | 1820 nM | 150 nM | 160 nM | 1920 nM | 2.41 µM | 170 nM | 120 nM |
| COc1cc2c(cc1O)N=C[C@@H]1CCCN1C2=O | 0.7 °C | 2370 nM | 170 nM | 170 nM | 160 nM | 1490 nM | 140 nM | 110 nM | 0.16 µM | 200 nM | 170 nM |
| COC(=O)c1nnn([C@H]2C[C@H]3C=Nc4cc(OC)c(OC)cc4C(=O)N3C2)c1C(=O)OC | 2.8 °C | 2470 nM | 2170 nM | 26400 nM | 2390 nM | 2260 nM | 914 nM | 1090 nM | – | 2230 nM | 210 nM |
| COC(=O)c1nnn(CCCCCOc2cc3c(cc2OC)C(=O)N2CCC[C@H]2C=N3)c1C(=O)OC | 3.6 °C | 1930 nM | – | 7190 nM | 26800 nM | 26000 nM | 26000 nM | 2170 nM | 6.12 µM | 29100 nM | 2150 nM |
| COc1cccc2c1C(=O)c1c(O)c3c(c(O)c1C2=O)C[C@@](O)(C(=O)CO)C[C@@H]3O[C@H]1C[C@H](N)[C@H](O)[C@H](C)O1 [DOXORUBICIN] | – | 1790 nM | 180 nM | 170 nM | 170 nM | 100 nM | 170 nM | 150 nM | 7.25 µM | 1810 nM | 180 nM |
| COC(=O)c1nnn(CCCOc2cc3c(cc2OC)C(=O)N2C[C@@H](n4nnc(C(=O)OC)c4C(=O)OC)C[C@H]2C=N3)c1C(=O)OC | 4.5 °C | – | 2120 nM | 1050 nM | 2420 nM | – | 190 nM | 2010 nM | 7.12 µM | – | 2170 nM |

Reference: ChEMBL document CHEMBL1143216, “Synthesis of 1,2,3-triazole-linked pyrrolobenzodiazepine conjugates employing 'click' chemistry: DNA-binding affinity and anticancer activity” (2008)
